Results on 48 molecules are retold here after paper PMC3265452 (PLoS Neglected Tropical Diseases, 2012).

Where a name gives a salt, the structure may show the parent alone.

The target in one assay is AaDOP2 (Aedes aegypti, UniProt H6D5H2). The assay is described as follows: AaDOP2 antagonist screen of the LOPAC1280 library (HEK-CRELuc-Aadop2 cells, luminescence).
AaDOP2, sequence (H6D5H2 1-476): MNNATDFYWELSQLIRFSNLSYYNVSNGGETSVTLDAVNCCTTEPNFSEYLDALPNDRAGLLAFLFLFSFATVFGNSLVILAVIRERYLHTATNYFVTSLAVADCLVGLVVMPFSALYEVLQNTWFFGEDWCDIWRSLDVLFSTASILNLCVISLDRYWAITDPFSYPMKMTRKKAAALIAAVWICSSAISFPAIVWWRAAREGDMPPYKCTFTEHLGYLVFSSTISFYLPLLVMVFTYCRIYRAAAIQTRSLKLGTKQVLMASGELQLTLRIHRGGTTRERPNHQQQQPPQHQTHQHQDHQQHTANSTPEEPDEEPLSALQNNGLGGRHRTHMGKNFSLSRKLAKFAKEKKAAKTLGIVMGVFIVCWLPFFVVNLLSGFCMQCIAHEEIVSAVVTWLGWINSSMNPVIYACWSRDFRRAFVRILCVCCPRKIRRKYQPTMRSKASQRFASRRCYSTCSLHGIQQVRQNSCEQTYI
Conditions: not given
Type of assay: cell-based.
Take `COc1ccc([C@@H]2Sc3ccccc3N(CCN(C)C)C(=O)[C@@H]2OC(C)=O)cc1` [Compound 369, Diltiazem hydrochloride]: the “Compound effect (percent receptor signaling in presence of test compound, relative lux units relative to the SCH23390 control)” value is given as 107.
Same read-out and setting: with `Br.COc1ccc2c(c1)[C@]13CCCC[C@@H]1[C@H](C2)N(C)CC3.O` [Compound 370, Dextromethorphan hydrobromide monohydrate] the figure was 102; with `O=C(OCCN1CCCCC1)c1c[nH]c2ccccc12` [Compound 371, SB 203186], 84; with `CN1C[C@H](C(=O)N[C@]2(C)O[C@@]3(O)[C@@H]4CCCN4C(=O)[C@H](Cc4ccccc4)N3C2=O)C[C@@H]2c3cccc4[nH]cc(c34)C[C@H]21` [Compound 372, Dihydroergotamine methanesulfonate], 46.
`c1ccc2c(c1)[I+]c1ccccc1-2` [Compound 373, Diphenyleneiodonium chloride]: the “Compound effect (percent receptor signaling in presence of test compound, relative lux units relative to the SCH23390 control)” value was 36.
As for `CC(=O)C(C)=O` [Compound 375, 2,3-Butanedione], the “Compound effect (percent receptor signaling in presence of test compound, relative lux units relative to the SCH23390 control)” value turned out to be 88.
`N[C@H](C(=O)O)c1cc(O)cc(O)c1` [Compound 377, (S)-3,5-Dihydroxyphenylglycine]: the “Compound effect (percent receptor signaling in presence of test compound, relative lux units relative to the SCH23390 control)” value was 93.
Still for that read-out and setting: with `Cc1cc(N)c2ccccc2[n+]1CCCCCCCCCC[n+]1c(C)cc(N)c2ccccc21` [Compound 378, Dequalinium dichloride] the figure was 73; with `CN(C)CCOC(C)(c1ccccc1)c1ccccn1` (stereo not shown) [Compound 379, Doxylamine succinate], 85; with `CNCCCN1c2ccccc2CCc2ccccc21` [Compound 380, Desipramine hydrochloride], 29.
On the same count and under the same terms, with `O=C1NC(=O)C(c2ccccc2)(c2ccccc2)N1` [Compound 382, 5,5-Diphenylhydantoin] the figure was 96.
Still for that read-out and setting: next, `O=P(O)(O)C(Cl)(Cl)P(=O)(O)O` [Compound 384, Clodronic acid]: 83.
As for `O=C1NC(=O)C(c2ccccc2)(c2ccccc2)N1` [Compound 385, Phenytoin sodium], the “Compound effect (percent receptor signaling in presence of test compound, relative lux units relative to the SCH23390 control)” value is 77.
The same measure, in the same setting: next, `CC(C)NC[C@H](O)COc1cccc2[nH]ccc12` [Compound 387, S(-)-Pindolol]: 91; `COc1cc(C(=O)OCCCN2CCCN(CCCOC(=O)c3cc(OC)c(OC)c(OC)c3)CC2)cc(OC)c1OC` [Compound 389, Dilazep hydrochloride]: 62.
Same read-out and setting: next, `C[C@]12CC[C@H](OS(=O)(=O)[O-])CC1=CC[C@@H]1[C@@H]2CC[C@]2(C)C(=O)CC[C@@H]12.[Na+]` [Compound 390, Dehydroisoandrosterone 3-sulfate sodium]: 94; `Cn1c(=O)[nH]c2ncn(C)c2c1=O` [Compound 391, 1,7-Dimethylxanthine]: 94.
On the same count and under the same terms, with `COC1=C(OC)C(=O)c2ccccc2C1=O` [Compound 392, 2,3-Dimethoxy-1,4-naphthoquinone] the figure was 45; with `O=c1ccc2ccc(O)c(O)c2o1` [Compound 393, Daphnetin], 74.
In the case of `CCC(=O)N1CCN(C(=O)c2ccccc2)CC1` [Compound 394, DM 235], the “Compound effect (percent receptor signaling in presence of test compound, relative lux units relative to the SCH23390 control)” value worked out at 101.
Take `CC1(C)CCC=[N+]1[O-]` [Compound 395, 5,5-Dimethyl-1-pyrroline-N-oxide]: the “Compound effect (percent receptor signaling in presence of test compound, relative lux units relative to the SCH23390 control)” value is 94.
As to `Nc1ccn([C@H]2CC[C@@H](CO)O2)c(=O)n1` [Compound 396, 2',3'-dideoxycytidine], the “Compound effect (percent receptor signaling in presence of test compound, relative lux units relative to the SCH23390 control)” value was 102.
For `O=c1c2ccccc2[nH]c(=S)n1CCN1CCC(=C(c2ccc(F)cc2)c2ccc(F)cc2)CC1` [Compound 397, Diacylglycerol Kinase Inhibitor II], the “Compound effect (percent receptor signaling in presence of test compound, relative lux units relative to the SCH23390 control)” value stood at 74.
On to `CNCCc1ccc(O)c(O)c1.Cl` [Compound 399, N-Methyldopamine hydrochloride], for which the “Compound effect (percent receptor signaling in presence of test compound, relative lux units relative to the SCH23390 control)” value worked out at 94.
Still for that read-out and setting: with `C[N+]1(C)CCN(c2ccccc2)CC1.[I-]` [Compound 400, 1,1-Dimethyl-4-phenyl-piperazinium iodide] the figure was 87.
Take `CC(C)N(CCC(C(N)=O)(c1ccccc1)c1ccccn1)C(C)C` (stereo not shown) [Compound 402, Disopyramide phosphate]: the “Compound effect (percent receptor signaling in presence of test compound, relative lux units relative to the SCH23390 control)” value is given as 104.
Regarding `CN(C)[C@@H]1C(O)=C(C(N)=O)C(=O)[C@@]2(O)C(O)=C3C(=O)c4c(O)ccc(Cl)c4[C@@H](O)[C@H]3C[C@@H]12` [Compound 403, Demeclocycline hydrochloride], the “Compound effect (percent receptor signaling in presence of test compound, relative lux units relative to the SCH23390 control)” value was 84.
Turning to `O=C(O)Cc1ccccc1Nc1c(Cl)cccc1Cl` [Compound 405, Diclofenac sodium], the “Compound effect (percent receptor signaling in presence of test compound, relative lux units relative to the SCH23390 control)” value was determined as 94.
The same measure, in the same setting: with `c1ccc(-c2ccccn2)nc1` [Compound 408, 2,2'-Bipyridyl] the figure was 94; with `CC(C)N(CCC(C(N)=O)(c1ccccc1)c1ccccn1)C(C)C` (stereo not shown) [Compound 409, Disopyramide], 95.
With `O=c1c(-c2ccc(O)cc2)coc2cc(O)ccc12` [Compound 410, Daidzein], the “Compound effect (percent receptor signaling in presence of test compound, relative lux units relative to the SCH23390 control)” value stood at 47.
On the same count and under the same terms, next, `O=c1oc(Cl)c(Cl)c2ccccc12` [Compound 413, 3,4-Dichloroisocoumarin]: 96; `Clc1ccc(N2C[C@H]3CC[C@@H](C2)N3)nn1` [Compound 414, DBO-83]: 100; `CN(N=O)c1cc(O)ccc1O` [Compound 417, Dephostatin]: 111.
For `Nc1nccc2c1ncn2[C@@H]1O[C@H](CO)[C@@H](O)[C@H]1O` [Compound 419, 3-deazaadenosine], the “Compound effect (percent receptor signaling in presence of test compound, relative lux units relative to the SCH23390 control)” value was found to be 59.
The same measure, in the same setting: with `C#C[C@]1(O)CC[C@H]2[C@@H]3CCC4=Cc5oncc5C[C@]4(C)[C@H]3CC[C@@]21C` [Compound 421, Danazol] the figure was 83.
As for `CCCCCCN(CCCCCC)C(=O)Cc1c(-c2ccc(F)cc2)[nH]c2ccccc12` [Compound 422, N,N-Dihexyl-2-(4-fluorophenyl)indole-3-acetamide], the “Compound effect (percent receptor signaling in presence of test compound, relative lux units relative to the SCH23390 control)” value is reported as 93.
As to `Oc1c2ccccc2c2c3c(cccc13)N=N2` [Compound 424, SP600125], the “Compound effect (percent receptor signaling in presence of test compound, relative lux units relative to the SCH23390 control)” value is recorded as 101.
Regarding `CC1=NS(=O)(=O)c2cc(Cl)ccc2N1` [Compound 425, Diazoxide], the “Compound effect (percent receptor signaling in presence of test compound, relative lux units relative to the SCH23390 control)” value is 115.

The same assay, now with this note: 10 µM compound, 300 nM dopamine, 2 hr.
Take `Cc1nc2sccn2c(=O)c1CCN1CCC(=C(c2ccccc2)c2ccc(F)cc2)CC1` [Compound 401, Diacylglycerol kinase inhibitor I]: the “% of the SCH23390 effect (percent inhibition of receptor response relative to the SCH23390 control)” value is recorded as 90%.

The assay is the same for the next values; noted with them: 10 µM compound, 300 nM dopamine, 2 hr; hit = compound effect <20.
In the case of `OC[C@H]1O[C@@H](n2cnc3ccccc32)[C@H](O)[C@@H]1O` [Compound 367, D-ribofuranosylbenzimidazole], the “Compound effect (percent receptor signaling in presence of test compound, relative lux units relative to the SCH23390 control)” value was 24%.
In the case of `CN(C)C(=O)N=NC(=O)N(C)C` [Compound 376, N,N,N',N'-Tetramethylazodicarboxamide], the “Compound effect (percent receptor signaling in presence of test compound, relative lux units relative to the SCH23390 control)” value turned out to be 93%.
Still for that read-out and setting: with `CN(C)C(N)=NCCC[C@H](N)C(=O)O.Cl` [Compound 383, N^G,N^G-Dimethylarginine hydrochloride] the figure was 106%; with `Cc1nc2sccn2c(=O)c1CCN1CCC(=C(c2ccccc2)c2ccc(F)cc2)CC1` [Compound 401, Diacylglycerol kinase inhibitor I], 10%.
As to `O=C(O)CN(CCN(CC(=O)O)CC(=O)O)CCN(CC(=O)O)CC(=O)O` [Compound 404, Diethylenetriaminepentaacetic acid], the “Compound effect (percent receptor signaling in presence of test compound, relative lux units relative to the SCH23390 control)” value is 118%.
Same read-out and setting: next, `COc1c2c(nc3ccccc13)OC(C(C)(O)CO)C2` (stereo not shown) [Compound 411, Dubinidine]: 100%.
On the same count and under the same terms, next, `CCCCCCCCCCC/C=C\C(C)(C)/C=C\CCCC(=O)O` [Compound 415, 7,7-Dimethyl-(5Z,8Z)-eicosadienoic acid]: 82%; `N/C(=N\C(=O)c1nc(Cl)c(N)nc1N)NCc1ccc(Cl)c(Cl)c1` [Compound 418, 3',4'-Dichlorobenzamil]: 73%; `C/C=C1\C(=O)C[C@H]2[C@@H]3CCC4=CC(=O)CC[C@]4(C)[C@H]3CC[C@]12C` [Compound 420, (Z)-Gugglesterone]: 91%.
